# Experimental data: US20090012056A1, “Quinoline Compounds Capable of Binding the Cb2 and/or the 5-Ht6 Receptor” (GLAXO GROUP LIMITED, priority 2005, published 2009)
# Structures can show the parent of a compound that is named as a salt.
# Target: T1, human cloned 5-HT6 receptors (Homo sapiens, UniProt P50406)
# T1 construct: expressed in transfected cells; host or cells: HeLa cells (membranes)
# Test: Cyclase assay (cAMP production in membranes of HeLa 5HT6 cells, antagonism of 5-HT)
# Format: biochemical
# Details: cyclase assay with 5-HT at 4xEC50, read-out: fpKi (functional pKi, antagonist potency) (converted)
# Procedure: 0.5 μl of test compound in 100% dimethylsulfoxide (DMSO) was added to a white, solid 384 well assay plate (for dose response measurements the top of the concentration range is 7.5 μM final). 10 μl of washed membranes of HeLa 5HT6 cells (for preparation see WO 98/27081) in basic buffer (50 mM HEPES pH 7.4 (KOH), 1 mM MgCl2, 100 mM NaCl, 1 μl/ml 3-isobutyl-1-methylxanthine (IBMX) (Sigma-Aldrich)) was added to all wells followed by 10 μl 2×ATP buffer (100 μl/ml ATP and 1 μl/ml 3-Isobutyl-1-methylxanthine (IBMX) (Sigma-Aldrich)) with 5-HT (at a concentration equivalent to a dose response of 4×EC50). The resultant mixture was then incubated at room temperature for 30-45 minutes to allow cAMP production.
# cAMP production was then measured using the DiscoveRx™ HitHunter™ chemiluminescence cAMP assay kit (DiscoveRx Corporation, 42501 Albrae Street, Fremont, Calif. 94538; Product Code: 90-0004L) or any other suitable cAMP measurement assay.
# IC50 values were estimated from arbitrary designated unit (ADU) measurements from a Perkin Elmer Viewlux instrument using a four parameter logistic curve fit within EXCEL (Bowen, W. P. and Jerman, J. C. (1995), Nonlinear regression using spreadsheets. Trends in Pharmacol. Sci., 16, 413-417). Functional Ki values were calculated using the method of Cheng, Y. C. and Prussof, W. H. (Biochemical Pharmacol (1973) 22 3099-3108). pIC50 and fpKi are the negative log 10 of the molar IC50 and functional Ki respectively.
# T1 sequence (P50406 whole entry): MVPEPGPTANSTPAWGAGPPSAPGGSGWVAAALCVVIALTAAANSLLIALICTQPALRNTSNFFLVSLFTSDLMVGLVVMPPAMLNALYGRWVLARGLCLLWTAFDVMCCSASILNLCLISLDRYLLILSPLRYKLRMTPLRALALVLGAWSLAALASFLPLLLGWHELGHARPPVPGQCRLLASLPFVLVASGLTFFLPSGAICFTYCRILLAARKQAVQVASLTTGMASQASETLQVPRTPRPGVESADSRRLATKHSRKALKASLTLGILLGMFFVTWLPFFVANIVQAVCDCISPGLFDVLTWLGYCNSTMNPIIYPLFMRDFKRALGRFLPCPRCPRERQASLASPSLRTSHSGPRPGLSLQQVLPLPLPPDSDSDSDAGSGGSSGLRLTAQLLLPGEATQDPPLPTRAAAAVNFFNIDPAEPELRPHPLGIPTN
row,SMILES,Ki
1,"CC(c1cccc2cc(S(=O)(=O)c3ccccc3)cnc12)N(C)C (centres unmarked) [Example 19, N,N-dimethyl-1-[3-(phenylsulfonyl)quinolin-8-yl]ethanamine]",< 100 nM
2,"CC(c1cccc2cc(S(=O)(=O)c3ccccc3)cnc12)N1CCOCC1 (centres unmarked) [Example 18, 8-(1-morpholin-4-ylethyl)-3-(phenylsulfonyl)-quinoline]",≤ 1000 nM
3,"O=S(=O)(c1ccc(F)cc1)c1cnc2c(CN3CCCC3)cccc2c1 [Example 23, 3-[(4-Fluorophenyl)sulfonyl]-8-(1-pyrrolidinylmethyl)quinoline hydrochloride]",< 100 nM
4,"CC(=O)N1CCN(Cc2cccc3cc(S(=O)(=O)c4ccccc4)cnc23)CC1 [Example 24, 8-[(4-acetyl-1-piperazinyl)methyl]-3-(phenylsulfonyl)quinoline hydrochloride]",≤ 1000 nM
5,"CN(C)CCCc1cccc2cc(S(=O)(=O)c3ccccc3)cnc12 [Example 15, N,N-Dimethyl-3-[3-(phenylsulfonyl)-8-quinolinyl]-1-propanamine]",< 100 nM
6,"CC1CCCN1Cc1cccc2cc(S(=O)(=O)c3ccccc3)cnc12 (centres unmarked) [Example 8, 8-[(2-Methylpyrrolidin-1-yl)methyl]-3-(phenylsulfonyl)quinoline]",< 100 nM
7,"O=S(=O)(c1ccccc1)c1cnc2c(CCN3CCCC3)cccc2c1 [Example 10, 3-(Phenylsulfonyl)-8-[2-(1-pyrrolidinyl)ethylquinoline hydrochloride]",< 100 nM
8,"CC(c1cccc2cc(S(=O)(=O)c3ccccc3)cnc12)N1CCCCC1 (centres unmarked) [Example 17, 3-(phenylsulfonyl)-8-(1-piperidin-1-ylethyl)quinoline]",< 100 nM
9,"O=S(=O)(c1ccccc1)c1cnc2c(CCCN3CCCCC3)cccc2c1 [Example 13, 3-(Phenylsulfonyl)-8-[3-(1-piperidinyl)propyl]quinoline]",< 100 nM
10,"O=S(=O)(c1ccccc1)c1cnc2c(CCN3CCCCC3)cccc2c1 [Example 11, 3-(Phenylsulfonyl)-8-[2-(1-piperidiny)ethyl]quinoline hydrochloride]",< 100 nM
11,"CC(c1cccc2cc(S(=O)(=O)c3ccccc3)cnc12)N1CCCC1 (centres unmarked) [Example 16, 3-(Phenylsulfonyl)-8-(1-pyrrolidin-1-ylethyl)quinoline hydrochloride]",< 100 nM
12,"O=S(=O)(c1ccccc1)c1cnc2c(CCCN3CCCC3)cccc2c1 [Example 12, 3-(Phenylsulfonyl)-8-[3-(1-pyrrolidinyl)propyl]quinoline hydrochloride]",< 100 nM
13,"CCN(C)C(C)c1cccc2cc(S(=O)(=O)c3ccccc3)cnc12 (centres unmarked) [Example 21, N-Ethyl-N-methyl-1-[3-(phenylsulfonyl)quinolin-8-yl]ethanamine hydrochloride]",< 100 nM
14,"CC(C)(c1cccc2cc(S(=O)(=O)c3ccccc3)cnc12)N1CCCC1 [Example 22, 8-(1-Methyl-1-pyrrolidin-1-ylethyl)-3-(phenylsulfonyl)quinoline hydrochloride]",≤ 1000 nM
15,O=S(=O)(c1ccccc1)c1cnc2c(CCCN3CCOCC3)cccc2c1 [Example 14],< 100 nM

# Target: T2, human cannabinoid CB2 receptor (Homo sapiens, UniProt P34972)
# T2 construct: expressed in transfected cells; host or cells: Saccharomyces cerevisiae strain MMY23
# Test: Cannabinoid CB2 receptor agonist activity in yeast cells expressing the human CB2 receptor (FDGlu fluorescence)
# Format: cell-based
# Details: 24 hours at 30° C., read-out: pEC50 at the CB2 receptor (agonist activity) (converted)
# Source text: Yeast (Saccharomyces cerevisiae) cells expressing the human cannabinoid CB2 receptor were generated by integration of an expression cassette into the ura3 chromosomal locus of yeast strain MMY23. This cassette consisted of DNA sequence encoding the human CB2 receptor flanked by the yeast GPD promoter to the 5′ end of CB2 and a yeast transcriptional terminator sequence to the 3′ end of CB2. MMY23 expresses a yeast/mammalian chimeric G-protein alpha subunit in which the C-terminal 5 amino acids of Gpa1 are replaced with the C-terminal 5 amino acids of human Gαi1/23 (as described in Brown et al. (2000), Yeast 16:11-22). Cells were grown at 30° C. in liquid Synthetic Complete (SC) yeast media (Guthrie and Fink (1991), Methods in Enzymology, Vol. 194) lacking uracil, tryptophan, adenine and leucine to late logarithmic phase (approximately 6 OD600/ml).
# Agonists were prepared as 10 mM solutions in DMSO. EC50 values (the concentration required to produce 50% maximal response) were estimated using 4 fold dilutions of between 3- and 5-fold (BiomekFX, Beckman) into DMSO. Agonist solutions in DMSO (1% final assay volume) were transferred into black microtitre plates from NUNC Greiner (384-well). Cells were suspended at a density of 0.2 OD600/ml in SC media lacking histidine, uracil, tryptophan, adenine and leucine and supplemented with 10 mM 3-aminotriazole, 0.1M sodium phosphate pH 7.0, and 120 μM fluorescein di-β-D-glucopyranoside (FDGlu). This mixture (50 ul per well) was added to agonist in the assay plates (Multidrop 384, Labsystems). After incubation at 30° C. for 24 hours, fluorescence resulting from degradation of FDGlu to fluorescein due to exoglucanase, an endogenous yeast enzyme produced during agonist-stimulated cell growth, was determined using a fluorescence microtitre plate reader (Tecan Spectrofluor or LJL Analyst excitation wavelength: 485 nm; emission wavelength: 535 nm). Fluorescence was plotted against compound concentration and iteratively curve fitted using a four parameter fit to generate a concentration effect value.
# Efficacy (Emax) was calculated from the equation
# Emax=Max[compound X]−Min[compound X]/Max[HU210]−Min[HU210]×100% • where Max[compound X] and Min[compound X] are the fitted maximum and minimum respectively from the concentration effect curve for compound X, and Max[HU210] and Min[HU210] are the fitted maximum and minimum respectively from the concentration effect curve for (6aR,10aR)-3-(1,1′-Dimethylheptyl)-6a,7,10,10a-tetrahydro-1-hydroxy-6,6-dimethyl-6H-dibenzo[b,d]pyran-9-methanol (HU210; available from Tocris). Equieffective molar ratio (EMR) values were calculated from the equation
# EMR=EC50[compound X]/EC50[HU210] • Where EC50 [compound X] is the EC50 of compound X and EC50 [HU210] is the EC50 of HU210. • pEC50 is the negative log of the EC50.
# T2 sequence (P34972 whole entry): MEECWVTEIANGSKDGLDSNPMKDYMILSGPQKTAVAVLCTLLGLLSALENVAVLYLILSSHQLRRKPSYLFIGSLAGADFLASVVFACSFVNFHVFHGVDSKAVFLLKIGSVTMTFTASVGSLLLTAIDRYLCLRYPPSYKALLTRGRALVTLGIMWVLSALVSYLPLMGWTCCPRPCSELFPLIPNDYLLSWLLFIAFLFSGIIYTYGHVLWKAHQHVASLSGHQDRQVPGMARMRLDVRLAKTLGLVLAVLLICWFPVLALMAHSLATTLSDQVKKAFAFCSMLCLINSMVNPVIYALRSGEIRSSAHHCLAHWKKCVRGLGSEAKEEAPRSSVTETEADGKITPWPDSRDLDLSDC
row,SMILES,EC50
1,"COc1ccc(S(=O)(=O)c2cnc3c(CN4CCCC(F)(F)C4)cccc3c2)cc1NC(C)=O [Example 43, N-[5-({8-[(3,3-Difluoro-1-piperidinyl)methyl]-3-quinolinyl}sulfonyl)-2-(methyloxy)phenyl]acetamidehydrochloride]",< 1000 nM
2,"CC(c1cccc2cc(S(=O)(=O)c3ccccc3)cnc12)N1CCCC(F)(F)C1 (centres unmarked) [Example 37, 8-[1-(3,3-Difluoro-1-piperidinyl)ethyl]-3-(phenylsulfonyl)quinoline]",< 1000 nM
3,"O=S(=O)(c1ccc(Cl)cc1)c1cnc2c(CN3CCCC(F)(F)C3)cccc2c1 [Example 40, 3-[(4-Chlorophenyl)sulfonyl]-8-[(3,3-difluoro-1-piperidinyl)methyl]quinolinehydrochloride]",< 1000 nM
4,"O=S(=O)(c1ccc(F)cc1)c1cnc2c(CN3CCCC3)cccc2c1 [Example 23, 3-[(4-Fluorophenyl)sulfonyl]-8-(1-pyrrolidinylmethyl)quinoline hydrochloride]",≤ 10000 nM
5,"O=S(=O)(c1ccc2ccccc2c1)c1cnc2c(CN3CCCC(F)(F)C3)cccc2c1 [Example 46, 8-[(3,3-Difluoro-1-piperidinyl)methyl]-3-(2-naphthalenylsulfonyl)quinolinehydrochloride]",< 1000 nM
6,"Cc1ccc(S(=O)(=O)c2cnc3c(CN4CCCC(F)(F)C4)cccc3c2)cc1 [Example 39, 8-[(3,3-Difluoro-1-piperidinyl)methyl]-3-[(4-methylphenyl)sulfonyl]quinoline hydrochloride]",< 1000 nM
7,"CC(=O)N1CCN(Cc2cccc3cc(S(=O)(=O)c4ccccc4)cnc23)CC1 [Example 24, 8-[(4-acetyl-1-piperazinyl)methyl]-3-(phenylsulfonyl)quinoline hydrochloride]",≤ 10000 nM
8,"COc1ccc(S(=O)(=O)c2cnc3c(CN4CCCC(F)(F)C4)cccc3c2)cc1OC [Example 44, 3-{[3,4-Bis(methyloxy)phenyl]sulfonyl}-8-[(3,3-difluoro-1-piperidinyl)methyl]quinolinehydrochloride]",< 1000 nM
9,"CC(c1cccc2cc(S(=O)(=O)c3ccccc3)cnc12)N1CCC(F)(F)C1 (centres unmarked) [Example 36, 8-[1-(3,3-Difluoro-1-pyrrolidinyl)ethyl]-3-(phenylsulfonyl)quinoline]",< 1000 nM
10,"CC1CCCN1Cc1cccc2cc(S(=O)(=O)c3ccccc3)cnc12 (centres unmarked) [Example 8, 8-[(2-Methylpyrrolidin-1-yl)methyl]-3-(phenylsulfonyl)quinoline]",≤ 10000 nM
11,"O=S(=O)(c1ccccc1)c1cnc2c(CN3CCC(F)(F)C3)cccc2c1 [Example 33, 8-[(3,3-Difluoro-1-pyrrolidinyl)methyl]-3-(phenylsulfonyl)quinoline hydrochloride]",< 1000 nM
12,"Cc1ccc(S(=O)(=O)c2cnc3c(CN4CCCC(F)(F)C4)cccc3c2)cc1Cl [Example 45, 3-[(3-Chloro-4-methylphenyl)sulfonyl]-8-[(3,3-difluoro-1-piperidinyl)methyl]quinolinehydrochloride]",< 1000 nM
13,"O=S(=O)(c1ccccc1)c1cnc2c(CN3CC(F)(F)C3)cccc2c1 [Example 34, 8-[(3,3-Difluoro-1-azetidinyl)methyl]-3-(phenylsulfonyl)quinoline hydrochloride]",< 1000 nM
14,"COc1ccc(S(=O)(=O)c2cnc3c(CN4CCCC(F)(F)C4)cccc3c2)cc1Cl [Example 42, 3-{[3-Chloro-4-(methyloxy)phenyl]sulfonyl}-8-[(3,3-difluoro-1-piperidinyl)methyl]quinolinehydrochloride]",≤ 10000 nM
15,"O=S(=O)(c1ccc(Br)cc1)c1cnc2c(CN3CCCC(F)(F)C3)cccc2c1 [Example 41, 3-[(4-Bromophenyl)sulfonyl]-8-[(3,3-difluoro-1-piperidinyl)methyl]quinolinehydrochloride]",< 1000 nM
16,"O=S(=O)(c1ccc(F)cc1)c1cnc2c(CN3CCCC(F)(F)C3)cccc2c1 [Example 38, 8-[(3,3-Difluoro-1-piperidinyl)methyl]-3-[(4-fluorophenyl)sulfonyl]quinoline hydrochloride]",< 1000 nM
17,"CC(c1cccc2cc(S(=O)(=O)c3ccccc3)cnc12)N1CC(F)(F)C1 (centres unmarked) [Example 35, 8-[1-(3,3-Difluoro-1-azetidinyl)ethyl]-3-(phenylsulfonyl)quinoline]",< 1000 nM
